Results: patent US20260355318A1, “MOLECULAR MACHINES FOR TREATMENT OF CANCER, FUNGAL INFECTIONS, OR BACTERIAL INFECTIONS” (priority 2022, published 2026)

What was measured:
HEK293T cells = assay: Toxicity to HEK293T cells (CellTiter-Glo) and therapeutic index; type: cell-based, human; conditions: ratio between IC50 (HEK293T) and MIC
Description: The toxicity of visible-light-activated MMs to mammalian cells was investigated in human embryonic kidney cells (HEK293T) treated with increasing MM concentrations and 87.6 J cm^−2 of 405-nm light. […] The MM concentration that reduced viability by 50% (IC50), calculated from dose-response curves (FIG. 16C), ranged from 1.61-6.02 µM (FIG. 16D). The IC50 and MIC were used to calculate the therapeutic index. With a therapeutic index ≥1 (FIG. 16D), MM 1 was used for in vivo and ex vivo studies.
The biocompatibility of MMs with […] HEK293T cells was assessed using the CellTiter-Glo® Luminescent Cell Viability Assay (Promega, WI, USA) per the manufacturer's instructions by treating cells with increasing concentrations of different MMs plus 405-nm light (87.6 J cm^−2). Dose-response curves were used to determine the MM concentrations that reduced cell viability by 50% (IC50). The therapeutic index was calculated as the ratio between the IC50 and the MIC.

T. rubrum = assay: Ex vivo onychomycosis porcine nail model; parameters: species or system Trichophyton rubrum on porcine nails; key to Summary of significance, fungal load: * p<0.05; ** p<0.01; *** p<0.001; **** p<0.0001; ns: non-significant; conditions: for Mean rank diff. of fungal load: T. rubrum nails
Description: For microconidia preparation, T. rubrum was inoculated on potato dextrose agar containing 0.025% Sabouraud dextrose broth (SDB) and 1.0% penicillin-streptomycin. After a 10-day incubation at 28 ° C, the plates were flooded with PBS, which was then aspirated and filtered through a sterilized cotton gauze to recover microconidia (Ma et al., 2022).
An ex vivo onychomycosis model was established as previously described (Quatrin et al., 2020) with modifications. Pig hooves with exposed toenails were processed into ~1 cm^2-sized individual toenail samples with a band saw, washed with 70% ethyl alcohol and sterilized water, and inoculated with a microconidia suspension of T. rubrum (~10^7 conidia mL^−1) for 3 h. Samples were placed in a Petri dish containing moist sterilized paper and incubated at 28 ° C for 10 days. Fungal growth was confirmed by sample resuspension in PBS and plating on PDA containing 0.025% SDB and 1% penicillin-streptomycin. Infected samples were then treated with (1) 1% DMSO plus light, (2) monotherapy with MM 1 alone (0.77% in DMSO) plus light, (3) monotherapy with conventional antifungal (three drops (Quatrin et al., 2020) of Ciclopirox Topical Suspension USP, 0.77% “Lotion”, Leading Pharma, LLC, NY, USA, or Ciclopirox Topical Solution, 8% “Lacquer”, Perrigo New York Inc., NY, USA), or (4) combination therapy with MM 1 plus light and conventional antifungal. Each treatment group consisted of three samples. After 30 min, samples in the irradiated treatment groups were transferred to 24-well plates (Corning-Costar Corp., Corning, NY, USA) and irradiated with 405-nm light (87.6 J cm^−2). Treatment was repeated every 24 h for 5 days. Afterward, the samples were transferred to tubes containing PBS plus 1% penicillin-streptomycin, vortexed, and sonicated (Quatrin et al., 2020). Triplicate aliquots of this suspension were inoculated on PDA plates containing 1% penicillin-streptomycin. After a 10-day incubation at 28 ° C, CFU numbers were determined. Untreated samples served as positive controls.

[1] = test system: persister cells of A. baumannii; assay: Persister eradication, A. baumannii; type: cell-based, Acinetobacter baumannii; conditions: 1×MIC, 405 nm
E. coli transcripts = assay: GO enrichment analysis of transcripts more abundant in DMSO controls than in MM 1-treated E. coli; type: cell-based, Escherichia coli; conditions: more abundant in DMSO controls than at 0.5×MIC, 405 nm
Description: Gene ontology (GO) enrichment analysis of the transcripts displaying significant differences (p<0.05) in abundance between MM- and DMSO-treated cells was performed using Panther (http://pantherdb.org/) using the Fisher's Exact test. Results were corrected for the false discovery rate (FDR).

[2] = cytosolic small ribosomal subunit
[3] = integral component of plasma membrane
[4] = intracellular anatomical structure
[5] = intracellular non-membrane-bounded organelle
[6] = intrinsic component of membrane
[7] = intrinsic component of plasma membrane
[8] = plasma membrane protein complex
[9] = plasma membrane respiratory chain complex I

In the case of `C[C@@H]1Cc2ccc3ccccc3c2/C1=C1\c2ccccc2Sc2cc(NCCN(C)C)ccc21` [MM 1, N^1N^1-dimethyl-N^2-(9-(2-methyl-2,3-dihydro-1H-cyclopenta[a]naphthalen-1-ylidene)-9H-thioxanthen-3-yl) ethane-1,2-diamine], the therapeutic index (HEK293T cells) was ≥ 1, the “Summary of significance, fungal load” value (T. rubrum; 1% DMSO vs treatment) was “** (** p<0.01)” and the “Mean rank diff. of fungal load” value (T. rubrum; 1% DMSO vs treatment) was 28.00. For the same molecule, the “Summary of significance, fungal load” value (T. rubrum; CPX Lacquer vs treatment) was “ns”, the “Mean rank diff. of fungal load” value (T. rubrum; CPX Lacquer vs treatment) was 14.33 and the “Summary of significance, fungal load” value (T. rubrum; CPX Lotion vs treatment) was “ns”. The “Mean rank diff. of fungal load” value (T. rubrum; CPX Lotion vs treatment) was 14.67, the log reduction at 7700 µg/mL (T. rubrum; Trichophyton rubrum, topical, T. rubrum, 0.77% (w/v) MM 1 + 405-nm light, vs DMSO controls, read-out: reduction of fungal burden in porcine nails) was ~2 and the “time to reduce persister cells to limit of detection” value [1] was 3 min. For the same molecule, the “Fold Enrichment” value (E. coli transcripts; NADH dehydrogenase complex) was 3.02, the “transcripts significantly enriched in DMSO controls, #” value (from here on “transcripts significantly enriched”) (E. coli transcripts; NADH dehydrogenase complex) was 15 and the “Fold Enrichment” value (E. coli transcripts; Unclassified (−)) was “.71”. The “transcripts significantly enriched” value (E. coli transcripts; Unclassified (−)) was 300, the “Fold Enrichment” value (E. coli transcripts; catalytic complex) was 1.51 and the “transcripts significantly enriched” value (E. coli transcripts; catalytic complex) was 129. For the same molecule, the “Fold Enrichment” value (E. coli transcripts; cell periphery) was 1.15, the “transcripts significantly enriched” value (E. coli transcripts; cell periphery) was 454 and the “Fold Enrichment” value (E. coli transcripts; cellular anatomical entity) was 1.14. The “transcripts significantly enriched” value (E. coli transcripts; cellular anatomical entity) was 969, the “Fold Enrichment” value (E. coli transcripts; cytoplasm) was 1.18 and the “transcripts significantly enriched” value (E. coli transcripts; cytoplasm) was 487. The “Fold Enrichment” value (E. coli transcripts; cytosol) was 1.28, the “transcripts significantly enriched” value (E. coli transcripts; cytosol) was 394 and the “transcripts significantly enriched” value (E. coli transcripts; cytosolic large ribosomal subunit) was 25. For the same molecule, the “Fold Enrichment” value (E. coli transcripts; cytosolic ribosome) was 2.64, the “transcripts significantly enriched” value (E. coli transcripts; cytosolic ribosome) was 44 and the “Fold Enrichment” value (E. coli transcripts; [2]) was 2.60. The “transcripts significantly enriched” value (E. coli transcripts; [2]) was 19, the “Fold Enrichment” value (E. coli transcripts; integral component of membrane) was 1.20 and the “transcripts significantly enriched” value (E. coli transcripts; integral component of membrane) was 386. For the same molecule, the “Fold Enrichment” value (E. coli transcripts; [3]) was 1.27, the “transcripts significantly enriched” value (E. coli transcripts; [3]) was 216 and the “Fold Enrichment” value (E. coli transcripts; [4]) was 1.20. The “transcripts significantly enriched” value (E. coli transcripts; [4]) was 509, the “Fold Enrichment” value (E. coli transcripts; [5]) was 2.09 and the “transcripts significantly enriched” value (E. coli transcripts; [5]) was 61. The “Fold Enrichment” value (E. coli transcripts; intracellular organelle) was 2.01, the “transcripts significantly enriched” value (E. coli transcripts; intracellular organelle) was 63 and the “Fold Enrichment” value (E. coli transcripts; [6]) was 1.19. For the same molecule, the “transcripts significantly enriched” value (E. coli transcripts; [6]) was 392, the “Fold Enrichment” value (E. coli transcripts; [7]) was 1.29 and the “transcripts significantly enriched” value (E. coli transcripts; [7]) was 225. The “Fold Enrichment” value (E. coli transcripts; large ribosomal subunit) was 2.67, the “transcripts significantly enriched” value (E. coli transcripts; large ribosomal subunit) was 25 and the “Fold Enrichment” value (E. coli transcripts; membrane protein complex) was 1.55. The “transcripts significantly enriched” value (E. coli transcripts; membrane protein complex) was 98, the “Fold Enrichment” value (E. coli transcripts; membrane) was 1.16 and the “transcripts significantly enriched” value (E. coli transcripts; membrane) was 470. The “Fold Enrichment” value (E. coli transcripts; non-membrane-bounded organelle) was 1.68, the “transcripts significantly enriched” value (E. coli transcripts; non-membrane-bounded organelle) was 64 and the “Fold Enrichment” value (E. coli transcripts; organelle) was 1.65. For the same molecule, the “transcripts significantly enriched” value (E. coli transcripts; organelle) was 66, the “Fold Enrichment” value (E. coli transcripts; oxidoreductase complex) was 2.47 and the “transcripts significantly enriched” value (E. coli transcripts; oxidoreductase complex) was 47. For the same molecule, the “Fold Enrichment” value (E. coli transcripts; [8]) was 1.51, the “transcripts significantly enriched” value (E. coli transcripts; [8]) was 73 and the “Fold Enrichment” value (E. coli transcripts; plasma membrane respirasome) was 2.99. For the same molecule, the “transcripts significantly enriched” value (E. coli transcripts; plasma membrane respirasome) was 21, the “Fold Enrichment” value (E. coli transcripts; [9]) was 2.99 and the “transcripts significantly enriched” value (E. coli transcripts; [9]) was 14. For the same molecule, the “Fold Enrichment” value (E. coli transcripts; plasma membrane) was 1.19, the “transcripts significantly enriched” value (E. coli transcripts; plasma membrane) was 431 and the “Fold Enrichment” value (E. coli transcripts; protein-containing complex) was 1.47. The “transcripts significantly enriched” value (E. coli transcripts; protein-containing complex) was 258, the “Fold Enrichment” value (E. coli transcripts; respirasome) was 3.04 and the “transcripts significantly enriched” value (E. coli transcripts; respirasome) was 24. The “Fold Enrichment” value (E. coli transcripts; respiratory chain complex I) was 2.99, the “transcripts significantly enriched” value (E. coli transcripts; respiratory chain complex I) was 14 and the “Fold Enrichment” value (E. coli transcripts; respiratory chain complex) was 3.01. The “transcripts significantly enriched” value (E. coli transcripts; respiratory chain complex) was 22, the “Fold Enrichment” value (E. coli transcripts; ribonucleoprotein complex) was 2.61 and the “transcripts significantly enriched” value (E. coli transcripts; ribonucleoprotein complex) was 45. The “Fold Enrichment” value (E. coli transcripts; ribosomal subunit) was 2.64, the “transcripts significantly enriched” value (E. coli transcripts; ribosomal subunit) was 44 and the “Fold Enrichment” value (E. coli transcripts; ribosome) was 2.51. For the same molecule, the “transcripts significantly enriched” value (E. coli transcripts; ribosome) was 47, the “Fold Enrichment” value (E. coli transcripts; small ribosomal subunit) was 2.60 and the “transcripts significantly enriched” value (E. coli transcripts; small ribosomal subunit) was 19.
